This passage reports IC50 results from patent publication US11220496B2, “Compounds and method for treating autoimmune diseases” (Rigel Pharmaceuticals, Inc., priority 2013, dated 2022).

Counter-ions that a name gives are not always drawn.

The nature of this experiment: Human primary T-cell proliferation stimulated by IL-2 (CellTiter-Glo). The format is cell-based. The conditions noted are these: primary human T-cells, IL-2 stimulated proliferation, 72 hours, ATP readout; read-out: Activity (IC50, inhibition of JAK3 activity). From the text: One means of assaying for such inhibition is detection of the effect of the 2,4-substituted pyrimidinediamine compounds on the upregulation of downstream gene products. For example, the activity of the disclosed compounds may be characterized by assaying the effect of the 2,4-substituted pyrimidinediamine compounds described herein on the proliferative response of primary human T-cells. In this assay, primary human T-cells derived from peripheral blood and pre-activated through stimulation of the T-cell receptor and CD28, proliferate in culture in response to the cytokine Interleukin-2 (IL-2). This proliferative response is dependent on the activation of JAK1 and JAK3 tyrosine kinases, which phosphorylate and activate the transcription factor Stat-5. The primary human T-cells are incubated with the 2,4-substituted pyrimidinediamine compounds in the presence of IL-2 for 72 hours and at the assay endpoint intracellular ATP concentrations are measured to assess cell viability. A reduction in cell proliferation compared to control conditions is indicative of inhibition of the JAK kinase pathway.
Primary human T-cells derived from peripheral blood and pre-activated through stimulation of the T-cell receptor and CD28, proliferate in vitro in response to the cytokine Interleukin-2 (IL-2). This proliferative response is dependent on the activation of JAK-1 and JAK-3 tyrosine kinases, which phosphorylate and activate the transcription factor Stat-5.
Human primary T-cells were prepared as follows. Whole blood was obtained from a healthy volunteer, mixed 1:1 with PBS, layered on to Ficoll Hypaque (Amersham Pharmacia Biotech, Piscataway, N.J., Catalog #17-1440-03) in 2:1 blood/PBS:ficoll ratio and centrifuged for 30 min at 4° C. at 1750 rpm. The lymphocytes at the serum: ficoll interface were recovered and washed twice with 5 volumes of PBS. The cells were resuspended in Yssel's medium (Gemini Bio-products, Woodland, Calif., Catalog #400-103) containing 40 U/mL recombinant IL2 (R and D Systems, Minneapolis, Minn., Catalog #202-IL (20 μg)) and seeded into a flask pre-coated with 1 μg/mL anti-CD3 (BD Pharmingen, San Diego, Calif., Catalog #555336) and 5 μg/mL anti-CD28 (Immunotech, Beckman Coulter of Brea Calif., Catalog #IM1376). The primary T-cells were stimulated for 3-4 days, then transferred to a fresh flask and maintained in RPMI with 10% FBS and 40 U/mL IL-2.
The day prior to the assay set up, primary T-cells were centrifuged and resuspended in fresh RPMI with 10% FBS but without IL-2 and starved overnight. For the assay, the primary T-cells were centrifuged and resuspended Yssel's medium at 2×10^6 cells/mL. 50 μL of cell suspension containing 80 U/mL IL-2 was added to each well of a flat bottom 96 well black plate. For the unstimulated control, IL-2 was omitted from the last column on the plate. Compounds were serially diluted in dimethyl sulfoxide (DMSO, 99.7% pure, cell culture tested, Sigma-Aldrich, St. Louis, Mo., Catalog No. D2650) from 5 mM in 3-fold dilutions, and then diluted 1:250 in Yssel's medium. 50 μL of 2× compound was added per well in duplicate and the cells were allowed to proliferate for 72 hours at 37° C.
Proliferation was measured using CellTiter-Glo® Luminescent Cell Viability Assay (Promega), which determines the number of viable cells in culture based on quantitation of the ATP present, as an indicator of metabolically active cells. The substrate was thawed and allowed to come to ambient temperature. After mixing the Cell Titer-Glo reagent and diluent together, 100 μL was added to each well. The plates were mixed on an orbital shaker for two minutes to induce lysis and incubated at ambient temperature for an additional ten minutes to allow the signal to equilibrate. Detection was performed using a Wallac Victor2 1420 multilabel counter purchased from Perkin Elmer, Shelton, Conn.
For orientation: ATP-based viability assays read luminescence as a measure of living cells.
What is called IC50 is the point on the concentration scale where inhibition reaches its midpoint. For the compound `Cc1cnc(Nc2ccc(C(=O)NC3CCC3)cc2)nc1Nc1ccc2oc(=O)[nH]c2c1` [Compound A5, N-cyclobutyl-4-[5-methyl-4-(2-oxo-2,3-dihydro-benzooxazol-5-ylamino)-pyrimidin-2-ylamino]-benzamide], the IC50 is below 500 nM.

On to `Cc1cnc(Nc2cc(C)c(C)c(C)c2)nc1Nc1ccc2oc(=O)[nH]c2c1` [Compound A1, N2-(3,4,5-trimethyl)phenyl-5-methyl-N4-(2-oxo-2,3-dihydro-1,3-benzoxazol-5-yl)-2,4-pyrimidinediamine], for which the 50% inhibitory concentration (IC50) is below 500 nM.

On to `Cc1cnc(Nc2ccc3cnoc3c2)nc1Nc1ccc2oc(=O)[nH]c2c1` [Compound A12, 5-(2-(benzo[d]isoxazol-6-ylamino)-5-methylpyrimidin-4-ylamino)benzo[d]oxazol-2(3H)-one], for which the IC50 is below 500 nM.

On to `Cc1cnc(Nc2cc(C)c(F)c(C)c2)nc1Nc1ccc2oc(=O)n(COP(=O)(O)O)c2c1` [Compound A18, N2-(3,5-dimethyl-4-fluoro)phenyl-5-methyl-N4-[3-(phosphonooxy)methyl-2-oxo-2,3-dihydro-1,3-benzoxazol-5-yl]-2,4-pyrimidinediamine bis-sodium salt], for which the IC50 was 500 to 5000 nM.

In the case of `Cc1ccc(Nc2ncc(C)c(Nc3ccc4oc(=O)[nH]c4c3)n2)cc1C` [Compound A10, 5-[2-(3,4-dimethyl-phenylamino)-5-methyl-pyrimidin-4-ylamino]-3H-benzooxazol-2-one], the concentration for half-maximal inhibition (IC50) was below 500 nM.

As to `Cc1cnc(Nc2ccc(C(N)=O)cc2)nc1Nc1ccc2oc(=O)[nH]c2c1` [Compound A3, N4-(benzo[d]oxazol-2(3H)-on-5-yl)-N2-(4-aminocarbonylphenyl)-5-methylpyrimidine-2,4-diamine], the IC50 is below 500 nM.

Consider `COc1cc(Nc2ncc(C)c(Nc3ccc4oc(=O)[nH]c4c3)n2)cc(Cl)c1OC` [Compound A11, 5-(2-(3-chloro-4,5-dimethoxyphenylamino)-5-methylpyrimidin-4-ylamino)benzo[d]oxazol-2(3H)-one], for which the IC50 is below 500 nM.

Regarding `Cc1cnc(Nc2cc(C)c(F)c(C)c2)nc1Nc1ccc2oc(=O)[nH]c2c1` [Compound A14, N2-(3,5-dimethyl-4-fluoro)phenyl-5-methyl-N4-(2-oxo-2,3-dihydro-1,3-benzoxazol-5-yl)-2,4-pyrimidinediamine], the IC50 was below 500 nM.

On to `Cc1ccc(Nc2ncc(C)c(Nc3ccc4oc(=O)[nH]c4c3)n2)cc1F` [Compound A8, N2-(3-fluoro-4-methyl)phenyl-5-methyl-N4-(2-oxo-2,3-dihydro-1,3-benzoxazol-5-yl)-2,4-pyrimidinediamine], for which the IC50 is below 500 nM.

As for `COc1cc(Nc2ncc(C)c(Nc3ccc4oc(=O)[nH]c4c3)n2)cc(C)c1F` [Compound I-432, 5-(2-(4-fluoro-3-methoxy-5-methylphenylamino)-5-methylpyrimidin-4-ylamino)benzo[d]oxazol-2(3H)-one], the IC50 was below 500 nM.

As for `Cc1cnc(Nc2cc(C)c(C)c(C)c2)nc1Nc1ccc2oc(=O)n(COP(=O)(O)O)c2c1` [Compound A17, 5-methyl-N4-[3-(phosphonooxy)methyl-2-oxo-2,3-dihydro-1,3-benzoxazol-5-yl]-N2-(3,4,5-trimethyl)phenyl-2,4-pyrimidinediamine bis-sodium salt], the half-inhibitory concentration (IC50) was 500 to 5000 nM.

For `Cc1cc(CF)cc(Nc2ncc(C)c(Nc3ccc4oc(=O)[nH]c4c3)n2)c1` [Compound A7, 5-(2-(3-(fluoromethyl)-5-methylphenylamino)-5-methylpyrimidin-4-ylamino)benzo[d]oxazol-2(3H)-one], the IC50 was below 500 nM.

Consider `COc1cc(Nc2ncc(C)c(Nc3ccc4oc(=O)n(COP(=O)(O)O)c4c3)n2)cc(C(F)(F)F)c1` [Compound A15, N2-(3-methoxy-5-trifluoromethyl)phenyl-5-methyl-N4-[3-(phosphonooxy)methyl-2-oxo-2,3-dihydro-1,3-benzoxazol-5-yl]-2,4-pyrimidinediamine bis-sodium salt], for which the IC50 lay in the range of 500 to 5000 nM.

As for `Cc1cnc(Nc2ccc(C(=O)Nc3ccccc3)cc2)nc1Nc1ccc2oc(=O)[nH]c2c1` [Compound A2, 4-[5-methyl-4-(2-oxo-2,3-dihydro-benzoxazol-5-ylamino)-pyrimidin-2-ylamino]-N-phenyl-benzamide], the half-maximal inhibitory concentration (IC50) is below 500 nM.

For `COc1cc(Nc2ncc(C)c(Nc3ccc4oc(=O)n(COP(=O)(O)O)c4c3)n2)cc(C)c1F` [Compound A16, Sodium (5-(2-(4-fluoro-3-methoxy-5-methylphenylamino)-5-methylpyrimidin-4-ylamino)-2-oxobenzo[d]oxazol-3(2H)-yl)methyl phosphate], the IC50 lay within 500 to 5000 nM.
